The values that follow come from the supplement of paper PMC6206229.

Structures are written as SMILES. Converted amounts (≈) assume the structure as drawn.

Test [1] has as its system Staphylococcus aureus ATCC 700699 (MRSA). Briefly: minimum inhibitory concentration; extreme values may be limits of the assay. The method, boiled down:
(§1)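 Methicillin-susceptible and methicillin-resistant Staphylococcus aureus were tested by broth microdilution in 96-well plates, following CLSI guidance with a resazurin redox read-out. Compounds were tested from 0 to 100 µM and incubated with bacteria for 24 h at 37°C, then 30 µl of 0.015% resazurin was added for 2–4 h, with positive controls on each plate. The minimum inhibitory concentration was the lowest concentration that stayed blue rather than turning pink. Runs were done at least twice in triplicate.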

For test [2], the system named is Staphylococcus aureus ATCC 29213 (MSSA). The description is as above. The method, boiled down:
as §1

With `c1ccc(Oc2ccc(-c3cc(N4CCNCC4)[nH]n3)cc2)cc1`, the minimum inhibitory concentration in test [1] and in test [2] was more than 50 µM throughout.

Take `CN1CCC(NCc2cccc(-c3ccc(S(=O)(=O)NCc4ccccc4)cc3)c2)CC1`: the minimum inhibitory concentration in test [1] and in test [2] was more than 50 µM throughout.

Turning to `CS(=O)(=O)c1ccc(C(=O)N(CC2CCCO2)c2nc3ccccc3s2)cc1[N+](=O)[O-]` (stereo not drawn), the minimum inhibitory concentration in test [1] and in test [2] was more than 50 µM each time.

Turning to `O=C(NC1CCN(c2ccnc3ccccc23)C1)c1cccc(C(F)(F)F)c1` (stereo not drawn), the minimum inhibitory concentration in test [1] and in test [2] was more than 50 µM throughout.

In the case of `CCC(NC(=O)c1ccccc1NC(=O)c1ccc(C)cc1)C(=O)OC` (stereo not drawn), the minimum inhibitory concentration in test [1] and in test [2] was more than 50 µM each time.

In the case of `CC1=Nc2ccc(Cl)cc2C(c2ccccc2)N1CCNC(=O)CN(C)C` (stereo not drawn), the minimum inhibitory concentration in test [1] and in test [2] was more than 50 µM throughout.

Turning to `CCn1cnc2c(Nc3cc(F)cc(F)c3)nc(C#N)nc21`, the minimum inhibitory concentration in test [1] and in test [2] was more than 50 µM each time.

Regarding `CC1=Nc2ccc(Cl)cc2C(O)(c2ccc(C)cc2)N1CCN1CCCCC1` (stereo not drawn), the minimum inhibitory concentration in test [1] and in test [2] was more than 50 µM each time.

`c1ccc(Oc2ccc(-c3cc(CN4CCOCC4)[nH]n3)cc2)cc1`: the minimum inhibitory concentration in test [1] and in test [2] was more than 50 µM in each case.

`CCCCCCCCCCCCCCCCOP(=O)([O-])OCC[N+](C)(C)C`: the minimum inhibitory concentration in test [1] and in test [2] was more than 50 µM throughout.

`CCOc1ccc(OCC(=O)Nc2cc(C)cc(C)c2)cc1`: the minimum inhibitory concentration in test [1] and in test [2] was more than 50 µM in each case.

`COc1cc(OC)cc(C(=O)NCC2Cc3cc(Cl)cc(-c4ccncc4)c3O2)c1` (stereo not drawn): the minimum inhibitory concentration in test [1] and in test [2] was more than 50 µM in each case.

On to `CC[C@@H]([C@H](C)O)n1ncn(-c2ccc(N3CCN(c4ccc(OC[C@@H]5CO[C@@](Cn6cncn6)(c6ccc(F)cc6F)C5)cc4)CC3)cc2)c1=O`, for which the minimum inhibitory concentration in test [1] and in test [2] was more than 50 µM each time.

On to `O=C(Nc1cnc2ccccc2c1)c1cccc(-n2cnnn2)c1`, for which the minimum inhibitory concentration in test [1] and in test [2] was more than 50 µM each time.

For the compound `CN1CCCN(C(c2ccccc2)c2ccc(Cl)cc2)CC1` (stereo not drawn), the minimum inhibitory concentration in test [1] and in test [2] was more than 50 µM throughout.

`O=C(c1cc2ccccc2o1)N1CCN(Cc2ccc3c(c2)OCO3)CC1`: the minimum inhibitory concentration in test [1] and in test [2] was more than 50 µM throughout.

For the compound `CC(Oc1ccccc1)C(=O)Nc1nc(-c2ccccn2)cs1` (stereo not drawn), the minimum inhibitory concentration in test [1] and in test [2] was 50 µM (≈ 16.3 µg/mL) each time.

Turning to `Nc1ncc(-c2cn[nH]c2)cc1-c1nc2cc(Cl)cnc2[nH]1`, the minimum inhibitory concentration in test [1] and in test [2] was more than 50 µM in each case.

Turning to `Cc1ccc(S(=O)(=O)N2CCN(C(=O)c3cc(-c4ccccc4)n[nH]3)CC2)cc1`, the minimum inhibitory concentration in test [1] and in test [2] was more than 50 µM throughout.

On to `Cc1nc(-c2ccccn2)nc(N2CCC(Cc3ccccc3)C2)c1Cl` (stereo not drawn), for which the minimum inhibitory concentration in test [1] and in test [2] was more than 50 µM throughout.

For `O=C(Nc1ccccc1-c1nc2c(C(=O)O)cccc2o1)c1ccccc1`, the minimum inhibitory concentration in test [1] and in test [2] was more than 50 µM throughout.

Take `CCCc1ccc(S(=O)(=O)Nc2ccc(CN3CCN(CC4CC4)CC3)cc2)cc1`: the minimum inhibitory concentration in test [1] and in test [2] was more than 50 µM throughout.

Turning to `CCC(C)NC(=O)c1ccc(NC(=O)C2(c3ccccc3)CCCC2)cc1` (stereo not drawn), the minimum inhibitory concentration in test [1] and in test [2] was more than 50 µM throughout.

`C[C@]1(O)C[C@@H](c2nc(-c3ccc4ccc(-c5ccccc5)nc4c3)c3c(N)nccn32)C1`: the minimum inhibitory concentration in test [1] and in test [2] was more than 50 µM each time.

For `Cc1ccc2nc(Cl)c(CNCc3cccs3)cc2c1`, the minimum inhibitory concentration in test [1] and in test [2] was more than 50 µM in each case.

Take `CC(Oc1cccc(Cl)c1)C(=O)Nc1ccc2oc(-c3ccncc3)nc2c1` (stereo not drawn): the minimum inhibitory concentration in test [1] and in test [2] was more than 50 µM throughout.

For `FC(F)(F)c1cccc(-c2nc3c(NCc4ccncc4)nccc3[nH]2)c1`, the minimum inhibitory concentration in test [1] and in test [2] was more than 50 µM throughout.

For the compound `CC1COC(Cn2cncn2)(c2ccc(Oc3ccc(Cl)cc3)cc2Cl)O1` (stereo not drawn), the minimum inhibitory concentration in test [1] and in test [2] was more than 50 µM each time.

As for `CS(=O)(=O)N1CCC(Cn2nc(Cc3cccc4ccccc34)c3c(N)ncnc32)CC1`, the minimum inhibitory concentration in test [1] and in test [2] was more than 50 µM throughout.

For `Cc1nc(-c2cccc(NCc3ccccc3)c2)[nH]c1C`, the minimum inhibitory concentration in test [1] and in test [2] was 50 µM (≈ 13.9 µg/mL) throughout.

`CC(C)(C)n1nc(-c2ccccc2)c2c(N)ncnc21`: the minimum inhibitory concentration in test [1] and in test [2] was more than 50 µM throughout.

Turning to `O=C(NCc1ccoc1)N1CCN(Cc2ccc3c(c2)OCO3)CC1`, the minimum inhibitory concentration in test [1] and in test [2] was more than 50 µM in each case.

As to `CN(C)c1cc(NC(=O)Nc2ccccc2)c2ccccc2n1`, the minimum inhibitory concentration in test [1] and in test [2] was more than 50 µM each time.

For the compound `O=C(Nc1cccnc1)c1c(O)c2cccc3c2n(c1=O)CC3`, the minimum inhibitory concentration was found to be 50 µM (≈ 15.4 µg/mL) in test [1] and 25 µM (≈ 7.68 µg/mL) in test [2].

`O=C([C@@H](c1ccc(Cl)cc1)c1cccnc1)N1CCN(c2ccc(C(F)(F)F)cc2)CC1`: the minimum inhibitory concentration in test [1] and in test [2] was 50 µM (≈ 23 µg/mL) throughout.

In the case of `O=C(NCc1ccco1)N1CCN(Cc2ccc(Cl)s2)CC1`, the minimum inhibitory concentration in test [1] and in test [2] was more than 50 µM each time.

Consider `Brc1cncc(-c2cc(NCCCn3ccnc3)nc(-c3ccccc3)n2)c1`, for which the minimum inhibitory concentration in test [1] and in test [2] was more than 50 µM throughout.

As for `Cc1ccc(-c2cc(C(=O)Nc3cccnc3)c3cc(Br)ccc3n2)cc1`, the minimum inhibitory concentration in test [1] and in test [2] was 50 µM (≈ 20.9 µg/mL) each time.

For the compound `O=C(Nc1nc(-c2ccccn2)cs1)C1CC1c1ccccc1F` (stereo not drawn), the minimum inhibitory concentration in test [1] and in test [2] was more than 50 µM each time.

Turning to `CN1CCN(c2nccc3nc(-c4ccc(F)c(F)c4)[nH]c23)CC1`, the minimum inhibitory concentration in test [1] and in test [2] was more than 50 µM throughout.

For `CCc1nc2ccccc2n1CC(O)COc1cc(C)ccc1Cl` (stereo not drawn), the minimum inhibitory concentration in test [1] and in test [2] was more than 50 µM in each case.

In the case of `Cc1cc(NC(=O)c2ccc(Oc3ccc(Cl)cc3O)o2)no1`, the minimum inhibitory concentration in test [1] was 50 µM (≈ 16.7 µg/mL); in test [2] it was more than 50 µM.

For `CN1CCN(S(=O)(=O)c2ccc(-c3ccc4c(Nc5ncc(Cl)cn5)ccnc4c3)cc2)CC1`, the minimum inhibitory concentration in test [1] and in test [2] was more than 50 µM throughout.

Take `Cc1cc2ccccc2n1CC(=O)N1CC(C(=O)N2CCCCC2)Oc2ccccc21` (stereo not drawn): the minimum inhibitory concentration in test [1] and in test [2] was more than 50 µM each time.

Take `Cc1cc(O)nc(-n2nc(C)cc2C)n1`: the minimum inhibitory concentration in test [1] and in test [2] was more than 50 µM in each case.

Take `Cc1cc(Nc2ccncc2)n2nc(C)c(-c3ccccc3Cl)c2n1`: the minimum inhibitory concentration in test [1] and in test [2] was more than 50 µM in each case.

On to `CC(C)C(NC(=O)Cc1cccc2ccccc12)C(=O)Nc1cccc(C#N)c1` (stereo not drawn), for which the minimum inhibitory concentration in test [1] and in test [2] was more than 50 µM each time.

Regarding `CC1=NN(c2nc3ccccc3s2)C(=O)C1Cc1cccc2ccccc12` (stereo not drawn), the minimum inhibitory concentration in test [1] and in test [2] was more than 50 µM throughout.

Take `CCOc1ccccc1C(=O)Nc1cccc(-c2nc3ncccn3c2C)c1`: the minimum inhibitory concentration in test [1] and in test [2] was more than 50 µM in each case.

As to `O=C(NC1CC1)c1ccc(N2CCC(Cc3ccccc3)CC2)nc1`, the minimum inhibitory concentration in test [1] and in test [2] was more than 50 µM throughout.

Consider `CC(=O)N1CCN(c2ccc(Oc3ccc(Cl)cc3O)cc2)CC1`, for which the minimum inhibitory concentration in test [1] and in test [2] was more than 50 µM throughout.

For `c1csc(-c2cnc3sc(NCC4CCOCC4)nn23)c1`, the minimum inhibitory concentration in test [1] and in test [2] was more than 50 µM in each case.

For the compound `O=C(OCc1ccccc1)N1CCC(c2cc(-c3ccncc3)c(-c3ccc(F)cc3)[nH]2)CC1`, the minimum inhibitory concentration in test [1] and in test [2] was more than 50 µM in each case.

With `O=C(C1CCN(c2nnc(-n3cccc3)s2)CC1)N1CCC(Cc2ccccc2)CC1`, the minimum inhibitory concentration in test [1] and in test [2] was more than 50 µM each time.

`CCOC(=O)c1c(NC(=O)c2c(F)c(F)c(F)c(F)c2F)sc(C(N)=O)c1C`: the minimum inhibitory concentration in test [1] and in test [2] was more than 50 µM in each case.

Consider `c1ccc(Oc2ccc(-c3cc(C4CCOCC4)[nH]n3)cc2)cc1`, for which the minimum inhibitory concentration in test [1] and in test [2] was more than 50 µM each time.

Turning to `Cc1nc(-c2ccccn2)nc(NCCc2ccc(S(C)(=O)=O)cc2)c1Cl`, the minimum inhibitory concentration in test [1] and in test [2] was more than 50 µM in each case.

Consider `CC1CCCCN1C(=O)NCCc1coc(-c2ccc(F)cc2)n1` (stereo not drawn), for which the minimum inhibitory concentration in test [1] and in test [2] was more than 50 µM throughout.

As to `COc1ccc(Cn2cnc3c(-c4ccco4)nc(Cl)nc32)cc1`, the minimum inhibitory concentration in test [1] and in test [2] was more than 50 µM throughout.
